The text below walks through data of patent publication US10351559B2, “Maleate salts of a B-RAF kinase inhibitor, crystalline forms, methods of preparation, and uses therefore” (BeiGene, Ltd., priority 2015, dated 2019).

The nature of one series: aqueous solubility study. The conditions noted are these: listed as free base of Compound 1. It counts as physicochemical.
A short description of series [1]: hygroscopicity (moisture sorption) by DVS. It counts as physicochemical. To be noted: from 0 to 80% RH. An excerpt: The free base of Compound 1 was obtained originally as an amorphous solid, which is slightly hygroscopic with 2.2% water gain from 0 to 80% RH. No form transformation was observed after dynamic vapor sorption (DVS).
Series [2] is described as follows: short-term stability study (1 week, 60° C. and 40° C./75% RH). It counts as physicochemical. The procedure:
Weighed about 2 mg (For XRPD: 10 mg) of each of the above salts in a 40 mL glass vial, separately. The free base form was used as control. The closed samples were capped and sealed with parafilm, while the opened samples were covered by aluminum foil with pinhole. All the samples were stored in stability chamber or dry oven at the corresponding conditions (60° C. and 40° C./75% RH) for 1 week.

Another series in a line: tissue distribution. It counts as in vivo. The conditions noted are these: various tissues, brain.
The test system of a further series is CYP3A. The experiment in a line: CYP isoforms responsible for metabolism. Type of series: in vitro ADME.
Series [3] is described as follows: pharmacokinetic comparison of sesqui-maleate and free base, oral. It counts as in vivo, Beagle dogs. To be noted: dogs, oral dose 1 mg/kg (free base); listed as Free Base (Lyophilized Amorphous Form), 1 mg/kg. An excerpt:
Drugs and reagents: Crystalline Form A* of Compound 1 Sesqui-Maleate with particle sizes of D90=4.1 um, D10=1.5 um, D50=2.4 um after micronization. The material content (purity) was not less than 98.0%.
Experiment animals: Beagle dogs, male and female.
Pharmaceutical preparation: Weigh the appropriate amount of each substance and disperse in 0.5% sodium carboxymethyl cellulose (for the free base of Compound 1) or 0.5% methyl cellulose solution (for Compound 1 Sesqui-Maleate). Prepare a suspension at the desired concentration of Compound 1. All the doses and concentrations of Compound 1 were calculated with free base in this study.
Administration and sample collection: The dosing solutions will be freshly prepared prior to dose administration. The actual body weights and actual volume injected will be recorded accordingly. The dogs were fasted overnight and were allowed to intake food four hours after dosing. Each suspension was administrated orally to dogs at a dose ranged from 0.5 to 15 mg/kg. Blood samples (˜1.0 mL) will be collected at pre-dose and at different times up to 36 hours postdosing via cephalic vein plexus. Whole blood will be processed by centrifugation and plasma samples will be collected and kept at freezer prior to analysis. Plasma samples were processed by protein precipitation. Concentrations of Compound 1 in the plasma samples were determined using a validated liquid chromatography-tandem mass spectrometry (LC-MS/MS) method. The plasma concentration-time data were analyzed using a non-compartmental model using Pharsight WinNonlin.

Series [4] deals with BRAF V600E and KRAS cancers. Description: Phase I clinical study. It counts as in vivo, human.
[5] abbreviates: 16 KRAS cancer patients treated.

Regarding `O=C1CCc2c(Oc3ccc4c(c3)[C@@H]3[C@H](O4)[C@H]3c3nc4ccc(C(F)(F)F)cc4[nH]3)ccnc2N1` [Compound 1, 5-(((1R,1aS,6bR)-1-(6-(trifluoromethyl)-1H-benzo[d]imidazol-2-yl)-1a,6b-dihydro-1H-cyclopropa[b]benzofuran-5-yl)oxy)-3,4-dihydro-1,8-naphthyridin-2(1H)-one], the “solubility in water” value in “aqueous solubility study” is listed as “substantially insoluble in water”. In the series “aqueous solubility study” (water, LOQ at 0.001 mg/mL), the aqueous solubility is less than 1 µg/mL. Also, in series [1], the “water (weight) gain” value came out at 2.2%. Further, the TRS % in series [2] (0 day, listed as API free base) was found to be 0.12%; in series [2] (40° C./75% RH, 1 week, listed as API free base) it was 0.11%; in series [2] (60° C., 1 week, listed as API free base), 0.12%. Moreover, in “tissue distribution”, the tissue distribution entry was “widely distributed to various tissues, but was low in brain tissue”. For the same compound, in the series on CYP3A, the “CYP isoform responsible for metabolism” value is reported as “CYP3A was the major CYP isoform”. For the same compound, the Cmax in series [3] is recorded as 257 ng/mL. For the same compound, the “Dose-Normalized AUC0-inf” value in series [3] was 1512 ng·kg·h/mL/mg. The “number of PR” value in series [4] (setting [5]) is 3 PR. In series [4] (setting [5]), the “patients survived more than 2.2 months” value is “at least 12 patients”. Besides, the clinical response entry is recorded as “some anti-tumor activities” in series [4] (BRAF V600E CRC patients), “partial responses” in series [4] (BRAF V600E PTC patients) and “partial responses” in series [4] (BRAF V600E melanoma patients).
For 2-hydroxyethanesulfonate, in series [1], the “water (weight) gain” value is recorded as “around 4%”. The TRS % was found to be 0.08% in series [2] (0 day); 0.51% in series [2] (40° C./75% RH, 1 week); 1.16% in series [2] (60° C., 1 week). Also, in series [2] (after one week at 60° C. and 40° C./75% RH), the “chemical degradation” value is “showed degradations”. Also, in series [2] (both conditions after 1 week), the “appearance by visual observation” value is given as “no change”.
